Reference: article PMC5380162, “Characterization of a novel N-acetylneuraminic acid lyase favoring N-acetylneuraminic acid synthesis” (Scientific Reports, 2015)
Each block holds one molecule with its values, some of them ahead of it.

Key:
Format in all cases: biochemical
[1] = biological target: T1, CgNal (Corynebacterium glutamicum, UniProt Q8NMD2); assay: HPLC of substrates and products, Neu5Ac synthesis; conditions: 0.1 M Tris-HCl pH 7.5, assay at 37 °C, synthesis direction
T1 construct: gene Cgl2646; full length 312 aa (939 bp ORF), pET-28a(+), N-terminal His6-tag, E. coli Rosetta (DE3) pLysS, ~33 kDa, Ni-NTA; NAL family homotetramer
Source text: HPLC of substrates and products, Neu5Ac synthesis on CgNal

[2] = biological target: T2, EcDHDPS (Escherichia coli, UniProt P0A6L2); assay: coupled enzymatic assay (Yugari and Gilvarg); conditions: co-substrate pyruvate
T2 construct: gene dapA; dapA amplified from E. coli genomic DNA into pET-28a(+), expressed in E. coli Rosetta, Ni-NTA
T2 sequence (P0A6L2 1-292): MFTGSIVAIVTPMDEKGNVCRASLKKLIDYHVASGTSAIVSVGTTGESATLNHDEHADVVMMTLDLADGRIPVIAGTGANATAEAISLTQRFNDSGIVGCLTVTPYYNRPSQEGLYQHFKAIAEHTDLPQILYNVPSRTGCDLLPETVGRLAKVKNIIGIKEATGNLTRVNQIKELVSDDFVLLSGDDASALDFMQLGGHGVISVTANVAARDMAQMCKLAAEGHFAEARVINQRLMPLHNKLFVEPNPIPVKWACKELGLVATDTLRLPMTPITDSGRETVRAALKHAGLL

[3] = biological target: T1, CgNal; assay: HPLC of substrates and products, Neu5Ac cleavage; conditions: read-out: Neu5Ac Cleavage / Neu5Ac / Km; 0.1 M Tris-HCl pH 7.5, assay at 37 °C; cleavage direction
Source text: HPLC of substrates and products, Neu5Ac cleavage on CgNal

T1 sequence (Q8NMD2 entry or part of it): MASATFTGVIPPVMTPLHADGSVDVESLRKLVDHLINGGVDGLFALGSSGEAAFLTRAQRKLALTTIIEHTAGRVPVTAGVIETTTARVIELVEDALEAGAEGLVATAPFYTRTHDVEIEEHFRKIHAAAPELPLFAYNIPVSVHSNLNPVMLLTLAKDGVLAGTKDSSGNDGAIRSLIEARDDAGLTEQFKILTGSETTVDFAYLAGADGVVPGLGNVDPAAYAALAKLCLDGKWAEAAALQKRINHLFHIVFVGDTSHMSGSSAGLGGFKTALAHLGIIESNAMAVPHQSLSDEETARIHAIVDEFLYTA

Km ([1]; read-out: Neu5Ac Synthesis / ManNAc / Km, pyruvate fixed at 100 mM): 53.3 mM
Compound: CC(=O)N[C@@H]1C(O)O[C@H](CO)[C@@H](O)[C@@H]1O (stereo partly shown) [ManNAc]

Km ([1]; read-out: Neu5Ac Synthesis / Pyruvate / Km, ManNAc fixed at 50 mM): 14.7 mM
Compound: CC(=O)C(=O)O [pyruvate]

Compound: N[C@@H](CC=O)C(=O)O [ASA]
coupled enzymatic assay (Yugari and Gilvarg) [2]: Using ASA as substrate, CgNal showed only half the activity of EcDHDPS

Km [3]: 33.5 mM
Compound: CC(=O)N[C@H]1[C@H]([C@H](O)[C@H](O)CO)OC(O)(C(=O)O)C[C@@H]1O (stereo partly shown) [Neu5Ac]
